From patent publication US9980973B2, “Bicyclic heterocycle compounds and their uses in therapy” (ASTEX THERAPEUTICS LIMITED, priority 2012, dated 2018)
Structures can show the parent of a compound that is named as a salt. Where two headings read alike, the source gives them in different places.

System: EVSA-T (human breast carcinoma)
Experiment: Anti-proliferative activity, Alamar Blue assay, EVSA-T
Type: cell-based
[1] = EVSA-T cells, 72 hours, Alamar Blue, dihydrochloride, read-out: EVSA-T prolif
[2] = Homo sapiens, EVSA-T, 72 h, EVSA-T cells, 72 hours, Alamar Blue, read-out: EVSA-T prolif
[3] = Homo sapiens, EVSA-T, read-out: EC50 in EVSA-T cell line assays

Row | Compound | EC50 [1] | EC50 [2] | EC50 [3]
1 | C[C@@H]1CN(CC(=O)N2CC(C)(C)c3ncc(C(O)c4ccc(F)c(F)c4)cc32)[C@@H](CN2[C@H](C)COC[C@H]2C)CN1 (single isomer, unassigned) [Example 110, (R or S)-1-{6-[(3,4-Difluorophenyl)(hydroxy)meth-yl]-3,3-dimethyl-1H,2H,3H-pyrrolo[3,2-b]pyridin-1-yl}-2-[(2R,5R)-2-{[(3R,5R)-3,5-dimethylmorpholin-4-yl]methyl}-5-methylpiperazin-1-yl]ethan-1-one dihydrochloride] | 2.8 nM |  | 
2 | CC1CC(=O)CCN1C[C@H]1CN[C@H](C)CN1CC(=O)N1CC(C)(C)c2ncc(Cc3ccc(F)cc3)cc21 (single isomer, unassigned) [Example 40, dihydrochloride] | 2.8 nM |  | 
3 | CC(=O)N1CCN(C[C@H]2CN[C@H](C)CN2CC(=O)N2CC(C)(C)c3ncc(Cc4ccc(F)cc4)cc32)C(C)C1 (mixture of isomers) [Example 33, 2-[(2R,5R)-2-[(4-Acetyl-2-methylpiperazin-1-yl)methyl]-5-methylpiperazin-1-yl]-1-{6-[(4-fluorophenyl)methyl]-3,3-dimethyl-1H,2H,3H-pyrrolo[3,2-b]pyridin-1-yl}ethan-1-one dihydrochloride] |  | 0.46 nM | < 1000 nM
4 | C[C@@H]1CN(CC(=O)N2CC(C)(C)c3ncc(Cc4ccc(F)cc4)cc32)[C@@H](CN2CCC[C@H]2C(F)(F)F)CN1 [Example 36, 1-{6-[(4-Fluorophenyl)methyl]-3,3-dimethyl-1H,2H,3H-pyrrolo[3,2-b]pyridin-1-yl}-2-[(2R,5R)-5-methyl-2-{[(2S)-2-(trifluoromethyl)pyrrolidin-1-yl]methyl}piperazin-1-yl]ethan-1-one] |  | 12 nM | < 1000 nM
5 | C[C@@H]1CN(CC(=O)N2CC(C)(C)c3ncc(Cc4ccc(F)cc4)cc32)[C@@H](CN2CCOCC2(C)CO)CN1 (stereo partly drawn) [Example 47, 1-{6-[(4-Fluorophenyl)methyl]-3,3-dimethyl-1H,2H,3H-pyrrolo[3,2-b]pyridin-1-yl}-2-[(2R,5R)-2-{[3-(hydroxymethyl)-3-methylmorpholin-4-yl]methyl}-5-methylpiperazin-1-yl]ethan-1-one, dihydrochloride] |  | 0.9 nM | < 1000 nM
6 | C[C@@H]1CN(CC(=O)N2CC(C)(C)c3ncc(Cc4ccc(F)cc4)cc32)[C@@H](CN2CCC[C@H]2CF)CN1 [Example 30, 2-[(2R,5R)-2-{[(2S)-2-(Fluoromethyl)pyrrolidin-1-yl]methyl}-5-methylpiperazin-1-yl]-1-{6-[(4-fluorophenyl)methyl]-3,3-dimethyl-1H,2H,3H-pyrrolo[3,2-b]pyridin-1-yl}ethan-1-one dihydrochloride] |  | 1.2 nM | < 1000 nM
7 | CCCC(F)(F)c1cc2c(cn1)C(C)(C)CN2C(=O)CN1C[C@@H](C)NC[C@@H]1CN1[C@H](C)CN(C(C)=O)C[C@@H]1C [Example 93, 2-[(2R,5R)-2-{[(2R,6S)-4-Acetyl-2,6-dimethylpiperazin-1-yl]methyl}-5-methylpiperazin-1-yl]-1-[6-(1,1-difluorobutyl)-3,3-dimethyl-1H,2H,3H-pyrrolo[3,2-c]pyridin-1-yl]ethan-1-one dihydrochloride] |  | 7.1 nM | < 1000 nM
8 | C[C@@H]1CN(CC(=O)N2CC(C)(C)c3ncc(C(O)c4ccccc4)cc32)[C@@H](CN2[C@H](C)COC[C@H]2C)CN1 (single isomer, unassigned) [Example 114, 2-[(2R,5R)-2-{[(3R,5R)-3,5-Dimethymorpholin-4-yl]methyl}-5-methylpiperazin-1-yl]-1-{(R or S)-6-[hydroxy(phenyl)methyl]-3,3-dimethyl-1H,2H,3H-pyrrolo[3,2-b]pyridin-1-yl}ethan-1-one dihydrochloride] | 24 nM |  | 
9 | C[C@@H]1CN(CC(=O)N2CC(C)(C)c3ncc(Cc4ccc(F)cc4)cc32)[C@@H](CN2CCn3cnnc3C2)CN1 [Example 71, 1-{6-[(4-Fluorophenyl)methyl]-3,3-dimethyl-1H,2H,3H-pyrrolo[3,2-b]pyridin-1-yl}-2-[(2R,5R)-5-methyl-2-{5H, 6H, 7H, 8H-[1,2,4]triazolo[4,3-a]pyrazin-7-ylmethyl}piperazin-1-yl]ethan-1-one dihydrochloride] |  | 98 nM | < 1000 nM
10 | C[C@@H]1CN(CC(=O)N2CC(C)(C)c3ncc(Cc4ccc(F)cc4)cc32)[C@@H](CN2CCOCC(F)(F)C2)CN1 [Example 28, 2-[(2R,5R)-2-[(6,6-Difluoro-1,4-oxazepan-4-yl)methyl]-5-methylpiperazin-1-yl]-1-{6-[(4-fluorophenyl)methyl]-3,3-dimethyl-1H,2H,3H-pyrrolo[3,2-b]pyridin-1-yl}ethan-1-one dihydrochloride] |  | 3.1 nM | < 1000 nM
11 | C[C@@H]1CN(CC(=O)N2CC(C)(C)c3ncc(C(O)c4ccc(F)cc4F)cc32)[C@@H](CN2[C@H](C)COC[C@H]2C)CN1 (single isomer, unassigned) [Example 103, (R or S)-1-[6-[(2,4-Difluorophenyl)(hydroxy)meth-yl]-3,3-dimethyl-1H,2H,3H-pyrrolo[3,2-b]pyridin-1-yl}-2-[(2R,5R)-2-{[(3R,5R)-3,5-dimethylmorpholin-4-yl]methyl}-5-methylpiperazin-1-yl]ethan-1-one dihydrochloride] | 2.8 nM |  | < 1000 nM
12 | CC1CC(=O)CCN1C[C@H]1CN[C@H](C)CN1CC(=O)N1CC(C)(C)c2ncc(Cc3ccc(F)cc3)cc21 (stereo partly drawn) [Example 8, 1-{[(2R,5R)-1-(2-{6-[(4-Fluorophenyl)methyl]-3,3-dimethyl-1H,2H,3H-pyrrolo[3,2-b]pyridin-1-yl}-2-oxoethyl)-5-methylpiperazin-2-yl]methyl}-2-methylpiperidin-4-one dihydrochloride] |  | 3 nM | < 1000 nM
13 | C[C@@H]1CN(CC(=O)N2CC(C)(C)c3ncc(Cc4ccc(F)cc4)cc32)[C@@H](CN2CCOC(C#N)C2)CN1 (stereo partly drawn) [Example 31, 4-{[(2R,5R)-1-(2-{6-[(4-Fluorophenyl)methyl]-3,3-dimethyl-1H,2H,3H-pyrrolo[3,2-b]pyridin-1-yl}-2-oxoethyl)-5-methylpiperazin-2-yl]methyl}morpholine-2-carbonitrile] |  | 1.1 nM | < 1000 nM
14 | C[C@@H]1CN(CC(=O)N2CC(C)(C)c3ncc(Cc4ccc(F)cc4)cc32)[C@@H](CN2C3CCC2COC3)CN1 [Example 17, 1-{6-[(4-Fluorophenyl)methyl]-3,3-dimethyl-1H,2H,3H-pyrrolo[3,2-b]pyridin-1-yl}-2-[(2R,5R)-5-methyl-2-{3-oxa-8-azabicyclo[3.2.1]octan-8-ylmethyl}piperazin-1-yl]ethan-1-one dihydrochloride] |  | 3.8 nM | < 1000 nM
15 | C[C@@H]1CN(CC(=O)N2CC(C)(C)c3ncc(Cc4ccc(F)cc4)cc32)[C@@H](CN2CCC(O)CC2)CN1 [Example 23, 1-{6-[(4-Fluorophenyl)methyl]-3,3-dimethyl-1H,2H,3H-pyrrolo[3,2-b]pyridin-1-yl}-2-[(2R,5R)-2-[(4-hydroxypiperidin-1-yl)methyl]-5-methylpiperazin-1-yl]ethan-1-one dihydrochloride] |  | 3.8 nM | < 1000 nM
16 | C[C@@H]1CN(CC(=O)N2CC(C)(C)c3ncc(Cc4ccc(F)cc4)cc32)[C@@H](CN2CCC[C@@H](F)C2)CN1 [Example 14, 1-{6-[(4-Fluorophenyl)methyl]-3,3-dimethyl-1H,2H,3H-pyrrolo[3,2-b]pyridin-1-yl}-2-[(2R,5R)-2-{[(3R)-3-fluoropiperidin-1-yl]methyl}-5-methylpiperazin-1-yl]ethan-1-one dihydrochloride] |  | 4.6 nM | < 1000 nM
17 | C[C@@H]1CN(CC(=O)N2CC(C)(C)c3ncc(Cc4ccc(F)cc4)cc32)[C@@H](CN2Cc3cccnc3C2)CN1 [Example 21, 1-{6-[(4-Fluorophenyl)methyl]-3,3-dimethyl-1H,2H,3H-pyrrolo[3,2-b]pyridin-1-yl}-2-[(2R,5R)-5-methyl-2-{5H,6H,7H-pyrrolo[3,4-b]pyridin-6-ylmethyl}piperazin-1-yl]ethan-1-one dihydrochloride] |  | 3.7 nM | < 1000 nM
18 | C[C@@H]1CN(CC(=O)N2CC(C)(C)c3ncc(C(O)c4ccc(F)cc4F)cc32)[C@@H](CN2[C@H](C)COC[C@H]2C)CN1 (single isomer, unassigned) [Example 104, (R or S)-1-{6-[(2,4-Difluorophenyl)(hydroxy)meth-yl]-3,3-dimethyl-1H,2H,3H-pyrrolo[3,2-b]pyridin-1-yl}-2-[(2R,5R)-2-{[(3R,5R)-3,5-dimethylmorpholin-4-yl]methyl}-5-methylpiperazin-1-yl]ethan-1-one dihydrochloride] | 1.3 nM |  | 
19 | C[C@@H]1CN(CC(=O)N2CC(C)(C)c3cnc(Cc4ccc(F)cc4F)cc32)[C@@H](CN2[C@H](C)COC[C@H]2C)CN1 [Example 63, 1-{6-[(2,4-Difluorophenyl)methyl]-3,3-dimethyl-1H,2H,3H-pyrrolo[3,2-c]pyridin-1-yl}-2-[(2R,5R)-2-{[(3R,5R)-3,5-dimethylmorpholin-4-yl]methyl}-5-methylpiperazin-1-yl]ethan-1-one, dihydrochloride] |  | 0.48 nM | < 1000 nM
20 | C[C@@H]1CN(CC(=O)N2CC(C)(C)c3ncc(Cc4ccc(F)cc4)cc32)[C@@H](CN2CCC(F)(F)C2)CN1 [Example 6, 2-[(2R,5R)-2-[(3,3-Difluoropyrrolidin-1-yl)methyl]-5-methylpiperazin-1-yl]-1-{6-[(4-fluorophenyl)methyl]-3,3-dimethyl-1H,2H,3H-pyrrolo[3,2-b]pyridin-1-yl}ethan-1-one dihydrochloride] |  | 4.6 nM | < 1000 nM
21 | C[C@@H]1CN(CC(=O)N2CC(C)(C)c3ncc(Cc4ccc(F)cc4F)cc32)[C@@H](CN2C[C@H](CO)OC[C@H]2C)CN1 [Example 120, 1-{6-[(2,4-Difluorophenyl)methyl]-3,3-dimethyl-1H,2H,3H-pyrrolo[3,2-b]pyridin-1-yl}-2-[(2R,5R)-2-{[(2R,5R)-2-(hydroxymethyl)-5-methylmorpholin-4-yl]methyl}-5-methylpiperazin-1-yl]ethan-1-one, dihydrochloride] |  | 0.3 nM | < 1000 nM
22 | CO[C@@H]1CN(C[C@H]2CN[C@H](C)CN2CC(=O)N2CC(C)(C)c3ncc(Cc4ccc(F)cc4)cc32)C[C@@H]1F (mixture of isomers) [Example 41] |  | 6 nM | < 1000 nM
